16 molecules from article PMC6272176, “Antileishmanial and Cytotoxic Compounds from Valeriana wallichii and Identification of a Novel Nepetolactone Derivative” (Molecules, 2015) can be followed below.

Like-named read-outs stand apart in the source and are kept apart here.

Data set [1] has as its system J774.1 murine macrophage cell line. The data set can be described thus: Cytotoxicity against macrophages (J774.1), AlamarBlue assay. The conditions noted are these: for IC50: Mus musculus; for cytotoxicity (in words): verbal rating. The class given is cell-based. Here is the method:
(§1) All compounds isolated were subjected to the evaluation of their antileishmanial activity against L. major promastigotes in vitro and cytotoxicity against macrophages (J774.1 murine cell line) using the corresponding AlamarBlue^© assays (cf. Table 2).
(§2) Antileishmanial activity against L. major promastigotes and cytotoxicity against a murine macrophage cell line (J774.1) was determined using an AlamarBlue^© assay. Methods for both procedures have been reported previously. IC50 values are presented as mean values of two experiments.

The subject of a further data set is L. major promastigotes. Put plainly: Antileishmanial activity against L. major promastigotes, AlamarBlue assay. The data set is classed as cell-based, Leishmania major. The conditions noted are these: for antileishmanial activity (in words): verbal rating; for IC50: Leishmania major, read-out: IC50 (L. major). The protocol:
as §1, §2

[2] abbreviates: J774.1 macrophages, values marked *: pure or synthesized compounds, given in µM, mean of two experiments, read-out: IC50 (J774.1).
Where [3] appears, read: L. major promastigotes in vitro.
[4] abbreviates: L. major promastigotes in vitro, values marked *: pure or synthesized compounds, given in µM, mean of two experiments.
Setting [5] is: J774.1 macrophages, fractions containing isolated compounds, mean of two experiments, read-out: IC50 (J774.1).
The mark [6] stands for this setting: L. major promastigotes in vitro, fractions containing isolated compounds, mean of two experiments.
Setting [7] is: J774.1 macrophages, fractions containing isolated compounds, mean of two experiments.

The IC50 is the concentration that gives 50% inhibition.

In the case of `CC1(C)C2CCC1(C)C(OC(=O)C=Cc1ccc(O)c(O)c1)C2` (stereo not drawn) [Bornyl caffeate (1), bornyl caffeate], the results for the half-inhibitory concentration (IC50) (in data set [1] (setting [2]); in the data set on L. major promastigotes (setting [4])) were 8.3 µM and 48.8 µM, respectively. For the same molecule, the “antileishmanial activity (in words)” value in the data set with L. major promastigotes (setting [3]) is on record as “moderate antileishmanial activity”.

In the case of `CC(C)CC(=O)OC1CC2CCC1(C)C2(C)C` (stereo not drawn) [Bornyl isovalerate (13), bornyl isovalerate], the IC50 (in data set [1] (setting [2]); in the data set on L. major promastigotes (setting [4])) was > 100 µM throughout. In addition, the “antileishmanial activity (in words)” value with L. major promastigotes (setting [3]) was “no antileishmanial activity”.

Regarding `CCCCCCCCCCCCCCCCOP(=O)([O-])OCC[N+](C)(C)C` [Miltefosine, reference compound], the concentration for half-maximal inhibition (IC50) in data set [1] (setting [2]) turned out to be 56.5 µM.

`CC(C)C1CCC2(C)CCCC(=O)C2(C)C1` (stereo not drawn) [Valeranone (12), valeranone]: the “cytotoxicity (in words)” value in data set [1] (J774.1 macrophages) is recorded as “moderate”. Also, the values for the IC50 (in data set [1] (setting [5]); in the data set with L. major promastigotes (setting [6])) were 42.6 µg/mL and 60.8 µg/mL, respectively. Besides, the “antileishmanial activity (in words)” value in the data set with L. major promastigotes (setting [3]) is on record as “moderate”.

With `COc1ccc(C=CC(=O)OC2CC3CCC2(C)C3(C)C)cc1O` (stereo not drawn) [compound 2, bornyl isoferulate], the IC50 stood at 34.7 µg/mL in data set [1] (setting [5]) and 16.7 µg/mL with L. major promastigotes (setting [6]). In the data set on L. major promastigotes (setting [3]), the “antileishmanial activity (in words)” value is on record as “moderate antileishmanial activity”.

As to `CC1CCC2(OC3OC(CO)C(O)C(O)C3O)C1C(=O)OC2(C)COC(=O)C=Cc1ccc(O)cc1` [compound 4, {[(3S,4S,7R,8S)-1-Oxo-3,7-dimethyl-4-(O-β-D-glucopyranosyl)oxy]hexahydrocyclopenta[c]furan-3-yl}-methyl-trans-4-hydroxycinnamate], the IC50 (in data set [1] (setting [5]); in the data set with L. major promastigotes (setting [6])) was > 100 µg/mL each time.

With `C[C@@H]1CC[C@H]2[C@H](CO)COC(=O)[C@H]21` [compound 5, (4R,5S,8R,9S)-4-(Hydroxymethyl)-8-methylhexahydro-cyclopenta[c]pyranone], the figures for the IC50 (in data set [1] (setting [5]); with L. major promastigotes (setting [6])) were 17.5 µg/mL and > 100 µg/mL, respectively.

`CCC(C)CC(=O)OC1OC=C(COC(=O)CC(C)C)C2CC(OC(C)=O)C(O)(COC(=O)C(OC(=O)CC(C)C)C(C)C)C12` (stereo not drawn) [compound 6]: the IC50 in data set [1] (setting [5]) is < 0.8 µg/mL; with L. major promastigotes (setting [6]), 1.9 µg/mL.

On to `CC(=O)OC1CC2C(COC(=O)CC(C)C)=COC(OC(=O)CC(C)C)C2C1(O)COC(=O)CC(C)C` (stereo not drawn) [compound 7], for which the half-maximal inhibitory concentration (IC50) in data set [1] (setting [5]) is < 0.8 µg/mL; in the data set with L. major promastigotes (setting [6]), 0.8 µg/mL.

As for `CC(=O)OCC1=COC(OC(=O)CC(C)C)C2C1=CC(OC(=O)CC(C)C)C2(O)COC(=O)CC(C)C` (stereo not drawn) [compound 8], the half-maximal inhibitory concentration (IC50) came out at 1 µM in data set [1] (setting [2]) and 1.7 µM with L. major promastigotes (setting [4]).

`CC(=O)OC1CC2C(COC(=O)CC(C)C)=COC(OC(=O)CC(C)C)C2C1(O)CCl` (stereo not drawn) [compound 9, valechlorine]: the IC50 in data set [1] (setting [5]) amounted to 1.9 µg/mL; with L. major promastigotes (setting [6]), 2.3 µg/mL.

With `COc1cc(C2c3cc4c(cc3C(O)C3COC(=O)C23)OCO4)cc(OC)c1O` (stereo not drawn) [compound 15, 4'-demethylpodophyllotoxin], the “IC50 (J774.1)” value in data set [1] (setting [7]) is recorded as <0.8 µg/mL. The “IC50 (L. major)” value in the data set with L. major promastigotes (setting [6]) is listed as >100 µg/mL. Moreover, in the data set on L. major promastigotes (setting [3]), the “antileishmanial activity (in words)” value was “no antileishmanial activity”.

Regarding `COc1cc([C@@H]2c3cc4c(cc3[C@H](O)[C@H]3COC(=O)[C@H]23)OCO4)cc(OC)c1OC` [compound 16, podophyllotoxin], the IC50 in data set [1] (J774.1, read-out: IC50 (J774.1)) is < 0.8 µg/mL; with L. major promastigotes it was > 100 µg/mL. The “antileishmanial activity (in words)” value in the data set with L. major promastigotes (setting [3]) is given as “no antileishmanial activity”.

For the molecule `CC1CC(O)C2C1CC1CCC2(C)OC1(C)C` (stereo not drawn) [α-Kessyl alcohol (11), α-kessyl alcohol], the IC50 in data set [1] (setting [5]) was determined as 1.7 µg/mL; in the data set on L. major promastigotes (setting [6]), 5.8 µg/mL. For the same molecule, in the data set on L. major promastigotes (setting [3]), the “antileishmanial activity (in words)” value is recorded as “rather good antileishmanial activity”.

For `CC(C)=CCCC(C)C1(O)CC=C(C)CC1` (stereo not drawn) [β-Bisabolol (10), β-bisabolol], the “cytotoxicity (in words)” value in data set [1] (J774.1 macrophages) was “moderate”. In addition, the 50% inhibitory concentration (IC50) came to 37.1 µg/mL in data set [1] (setting [5]) and 52.2 µg/mL in the data set with L. major promastigotes (setting [6]). Further, in the data set on L. major promastigotes (setting [3]), the “antileishmanial activity (in words)” value is reported as “moderate”.

For pinoresinol [Pinoresinol (17)], in data set [1] (setting [7]), the “IC50 (J774.1)” value is <0.8 µg/mL. Further, in the data set on L. major promastigotes (setting [6]), the “IC50 (L. major)” value was >100 µg/mL. Moreover, in the data set on L. major promastigotes (setting [3]), the “antileishmanial activity (in words)” value is listed as “no antileishmanial activity”.
